Source: patent US20060252930A1 (priority 2003, published 2006)
Where “and” joins values, the source holds several entries; their conditions need not be identical. Equal entries are not always repeated. Where two headings read alike, the source gives them in different places.

What was measured:
[1] = test system: Candida albicans ATCC 64548; assay: Enhancing activity of azole antifungal agent, yeast susceptibility test NCCLS M27-A; format: cell-based; conditions: for enhancing action of the activity of azole antifungal agent (in words): C. albicans ATCC64548, summary statement; for Ratio (enhancing activity): IC50 without addition set as 1.0
Method: (§1) Candida albicans ATCC 64548, fluconazole resistant Candida albicans ATCC 64550 and Aspergillus niger ATCC 6275 were used as test organisms.
(§2) Enhancing activity of azole antifungal agent on Candida albicans ATCC 64548 and ATCC 64550 was determined by yeast susceptibility test method, National Committee for Clinical Standard (NCCLS) Standard Method M27-A. Each suspension of inoculating strain was spread over YM agar medium (0.5% yeast extract, 0.5% malt extract, 0.5% peptone, 1% glucose and 1.5% agar) and cultured at 35° C. for 36 hours. Five grown colonies with a diameter 1 mm or more were collected and the colonies were suspended in physiological saline 5 ml. The suspension was further diluted with physiological saline to prepare the test microorganism suspension having McFarland transmittance 0.5. RPMI 1640 medium 70 μl was added into 96 well plastic plate (Corning Inc., U.S.). […] Finally, the test microorganism suspension 100 μl was added and incubated at 35° C. for 24 hours. […] When IC50 value without addition of FKI-1366 substance A, FKI-1366 substance B or FKI-1366 substance C was set as 1.0, a ratio of IC50 with addition of FKI-1366 substance A, FKI-1366 substance B or FKI-1366 substance C was determined as the enhancing activity.

[2] = test system: fluconazole resistant Candida albicans ATCC 64550; format: cell-based; conditions: for Ratio (enhancing activity): IC50 without addition set as 1.0; for enhancing action of the activity of azole antifungal agent (in words): fluconazole resistant C. albicans ATCC64550, summary statement
Method: as §1, §2

[3] = test system: Aspergillus niger ATCC 6275; assay: Enhancing activity of azole antifungal agent, susceptibility test for conidiogenous fungi NCCLS M38-P (Alamar Blue); format: cell-based; conditions: for enhancing action of the activity of azole antifungal agent (in words): Aspergillus niger ATCC 6275, summary statement
Method: as §1
Enhancing activity of azole antifungal agent on Aspergillus niger ATCC 6275 was determined by the drug susceptibility test method for conidiogenous fungi proposed by NCCLS (M38-P). Spores of the strain of Aspergillus niger ATCC 6275 were suspended in the physiological saline to maintain a value at OD 530 nm being 0.09-0.11. The suspension was further diluted 100 times with PRMI1640 medium to prepare inoculating microorganism solution. […] Further, FKI-1366 substance A, FKI-1366 substance B or FKI-1366 substance C, 10 μl, each of which was prepared for maintaining the final concentration of 2.5, 5.0 and 10 μg/ml, was added. Finally, the test microorganism suspension 80 μl was added. Alamar Blue solution (Asahi Glass Co., Japan) 20 μl, a coloring reagent, was added thereto and incubated at 35° C. for 24 hours. […] When IC50 value without addition of FKI-1366 substance A, FKI-1366 substance B or FKI-1366 substance C was set as 1.0, a ratio of IC50 with addition of FKI-1366 substance A, FKI-1366 substance B or FKI-1366 substance C was determined as the enhancing activity.

[4] = Solubility in solvents; format: physicochemical
[5] = Table 1, miconazole + FKI-1366 substance 0.5 μg/ml
[6] = Table 1, miconazole + FKI-1366 substance 1.0 μg/ml
[7] = Table 1, miconazole + FKI-1366 substance 2.0 μg/ml
[8] = Table 2 (fluconazole) + FKI-1366 substance 0.5 μg/ml
[9] = Table 2 (fluconazole) + FKI-1366 substance 1.0 μg/ml
[10] = Table 2 (fluconazole) + FKI-1366 substance 2.0 μg/ml
[11] = Table 1, miconazole + FKI-1366 substance 2.5 μg/ml, IC50 without addition set as 1.0
[12] = Table 1, miconazole + FKI-1366 substance 5.0 μg/ml, IC50 without addition set as 1.0
[13] = Table 1, miconazole + FKI-1366 substance 10 μg/ml, IC50 without addition set as 1.0
[14] = Table 2 (fluconazole) + FKI-1366 substance 2.5 μg/ml, IC50 without addition set as 1.0
[15] = Table 2 (fluconazole) + FKI-1366 substance 5.0 μg/ml, IC50 without addition set as 1.0
[16] = Table 2 (fluconazole) + FKI-1366 substance 10 μg/ml, IC50 without addition set as 1.0
[17] = DMSO, methanol, chloroform and ethyl acetate

SMILES | enhancing action of the activity of azole antifungal agent (in words) [1] | Ratio (enhancing activity) [1, 5] | Ratio (enhancing activity) [1, 6] | Ratio (enhancing activity) [1, 7] | Ratio (enhancing activity) [1, 8] | Ratio (enhancing activity) [1, 9] | Ratio (enhancing activity) [1, 10] | Ratio (enhancing activity) [2, 5] | Ratio (enhancing activity) [2, 6] | Ratio (enhancing activity) [2, 7] | Ratio (enhancing activity) [2, 8] | Ratio (enhancing activity) [2, 9] | Ratio (enhancing activity) [2, 10] | enhancing action of the activity of azole antifungal agent (in words) [2] | enhancing action of the activity of azole antifungal agent (in words) [3] | Ratio (enhancing activity) [3, 11] | Ratio (enhancing activity) [3, 12] | Ratio (enhancing activity) [3, 13] | Solubility in solvents [4, 17] | Solubility in solvents ([4]; water and n-hexane) | also measured
CC(C)C1OC(=O)C(Cc2ccccc2)N(C)C(=O)C(C(C)C)OC(=O)C(Cc2ccccc2)N(C)C(=O)C(C(C)C)OC(=O)C(Cc2ccccc2)NC1=O (stereo not shown) [FKI-1366 substance A] | enhancing action | 1.0 | 1.4 | >55 | 1.0 | 1.4 | >55 | 1.2 | 5.0 | >60 | 1.2 | 5.0 | >60 | enhancing action | enhancing action | 5.5 | 9.6 | 10.9 | Soluble | Slightly soluble | Ratio (enhancing activity) [3, 14]: 5.5; Ratio (enhancing activity) [3, 15]: 9.6; Ratio (enhancing activity) [3, 16]: 10.9
CC(C)CC1NC(=O)C(C(C)C)OC(=O)C(Cc2ccccc2)N(C)C(=O)C(C(C)C)OC(=O)C(Cc2ccccc2)N(C)C(=O)C(C(C)C)OC1=O (stereo not shown) [FKI-1366 substance B] | enhancing action | 1.7 | 6.0 | >55 |  |  |  | 1.4 | 4.2 | >60 | 1.4 | 4.2 | >60 | enhancing action | enhancing action | 1.8 | 2.4 | 3.5 | Soluble | Slightly soluble | Ratio (enhancing activity) [3]: 1.8 and 2.4 and 3.5
CC(C)CC1OC(=O)C(Cc2ccccc2)N(C)C(=O)C(C(C)C)OC(=O)C(Cc2ccccc2)N(C)C(=O)C(C(C)C)OC(=O)C(Cc2ccccc2)N(C)C1=O (stereo not shown) [FKI-1366 substance C] | enhancing action | 1.0 | 2.5 | >55 | 1.0 | 2.5 | >55 | 1.0 | 1.1 | 3.9 | 1.0 | 1.1 | 3.9 | enhancing action | enhancing action | 5.2 | 8.0 | 11.0 | Soluble | Slightly soluble | Ratio (enhancing activity) [3, 14]: 5.2; Ratio (enhancing activity) [3, 15]: 8.0; Ratio (enhancing activity) [3, 16]: 11.0
